Test results reported in patent US9655822B2, “Hydrated lamellar phases or liposomes which contain a fatty monoamine or a cationic polymer which promotes intracellular penetration, and a cosmetic or pharmaceutical composition containing same, as well as a method of screening such a substance” (BASF Beauty Care Solutions France S.A.S., priority 2004, dated 2017).

Key:
[1] = test system: normal human fibroblasts; assay: Screening of molecules which stimulate the intracellular penetration of PFB-F incorporated in a liposome; format: cell-based
Procedure: These molecules are retained in priority. The preparation of the liposomes with primary fatty monoamines of alkyl chain length of between 3 and 18 carbons and the quantification of the intracellular penetration of the fluorescent label are carried out as described in the preceding Example. […] We have thus studied the intracellular penetration of the PFB-F encapsulated in liposomes in the presence of primary fatty monoamines on the one hand, and with secondary fatty monoamines on the other hand. The preparation of the liposomes with primary or secondary fatty amines and the quantification of the intracellular penetration of the fluorescent markers are carried out as described in Example 8.

[2] = test system: normal human fibroblasts; assay: Cell viability in the screening of functionalising molecules; conditions: 1% of molecule (25 kDa PEI: 50 μM), 96-well plate
Procedure: 250 μl of liposomal suspension is added onto cultures of normal human fibroblasts extracted from abdominal plasy and cultivated in a 96-well plate. Each concentration is tested on 6 different wells. The cell viability is evaluated by a test with paranitrophenylphosphate which determines the intracellular alkaline phosphatase activity after three rinses with pH 7.4 phosphate buffer. The percentage of living cells is calculated with respect to a control made without the addition of liposome in the culture well (n=6).
55 molecules are firstly tested in triplicate, in comparison with the 50 μM 25 kDa PEI. The intracellular penetration is quantified after 24 hours of incubation on normal human fibroblasts cultivated in 24-well plates as described in Example 2. The cell viability is estimated in a 96-well plate with 200 μl of liposomal suspension.
The intracellular penetration and the cytotoxicity are evaluated as described in Example 2.

[3] = Transcutaneous permeation on human skin; conditions: 0.5% vitamin E in liposomes with 2% quaternised soya solution vs free or liposome without quaternised agent; HPLC, 5 to 24 hours
Procedure: The diffusion kinetics were quantified by spectrofluorimetry from 3 to 24 hours. The release was quantified after 24 additional hours. The storage was also evaluated last. The number of samples tested is 5 per condition.
The diffusion kinetics were quantified by high performance liquid chromatography from 5 to 24 hours. The release was quantified after 24 additional hours. The storage was also evaluate last.

[4] = 1% of molecule (25 kDa PEI: 50 μM), 5% soya lecithin, 0.01% PFB-F, 24 hours

With “Stearamidopropyl cetearyl dimonium tosylate and PG” the Stimulation factor [1, 4] was 13.1 and the Viability [2] was 93.2%.

Work on Quaternium 26 yielded a Stimulation factor [1, 4] of 30.9 and a Viability [2] of 59.2%.

With Quaternium 70 and PG the Stimulation factor [1, 4] was −0.2 and the Viability [2] was 63.9%.

For `C[N+](C)(CCO)CCCNC(=O)[C@H](O)[C@@H](O)[C@H](O)[C@H](O)CO.[Cl-]` [Quaternium 22], the Stimulation factor [1, 4] was 2 and the Viability [2] was 98.9%.

For `CCCCN` [n-Butylamine C4, n-Butylamine], the Stimulation factor [1, 4] was 1.4, the Stimulation factor ([1]; by number of alkyl chains of the amine (chain length), as in Example 8) was 1.7 and the “Stimulation factor” value ([1]; primary monoamine with a single alkyl fatty chain, by number of carbons, as in Example 8) was 1.4.

In the case of vitamin E, the “diffusion, release and storage (in words)” value [3] is reported as “significantly stimulates the diffusion, the release and the storage”.
